The record followed here is BindingDB's records for doi:10.1016/j.bmcl.2006.12.077 (Glaxosmithkline, 2007).

This assay addresses Vascular endothelial growth factor receptor 2 (Homo sapiens, UniProt P35968). As to the kind of experiment: Homogeneous Time-Resolved Fluorescence (HTRF) Enzyme Assay. As to conditions: pH 7.5; 22 °C. How it is done: The assay uses purified GST-Tie-2 or GST-6x His-VEGFR2 interacting with biotinylated peptide substrates. HTRF is based on the proximity of europium cryptate (donor fluorophore)-labeled antiphosphotyrosine and streptavidin labeled with APC (allophycocyanin), which have been brought together by a binding reaction. When the two entities come into close proximity and upon excitation, energy transfer occurs and APC re-emits at 665 nm. The IC50 values for inhibitors were determined by a four-parameter sigmoidal curve fit.

Sequence of Vascular endothelial growth factor receptor 2 (P35968 whole entry): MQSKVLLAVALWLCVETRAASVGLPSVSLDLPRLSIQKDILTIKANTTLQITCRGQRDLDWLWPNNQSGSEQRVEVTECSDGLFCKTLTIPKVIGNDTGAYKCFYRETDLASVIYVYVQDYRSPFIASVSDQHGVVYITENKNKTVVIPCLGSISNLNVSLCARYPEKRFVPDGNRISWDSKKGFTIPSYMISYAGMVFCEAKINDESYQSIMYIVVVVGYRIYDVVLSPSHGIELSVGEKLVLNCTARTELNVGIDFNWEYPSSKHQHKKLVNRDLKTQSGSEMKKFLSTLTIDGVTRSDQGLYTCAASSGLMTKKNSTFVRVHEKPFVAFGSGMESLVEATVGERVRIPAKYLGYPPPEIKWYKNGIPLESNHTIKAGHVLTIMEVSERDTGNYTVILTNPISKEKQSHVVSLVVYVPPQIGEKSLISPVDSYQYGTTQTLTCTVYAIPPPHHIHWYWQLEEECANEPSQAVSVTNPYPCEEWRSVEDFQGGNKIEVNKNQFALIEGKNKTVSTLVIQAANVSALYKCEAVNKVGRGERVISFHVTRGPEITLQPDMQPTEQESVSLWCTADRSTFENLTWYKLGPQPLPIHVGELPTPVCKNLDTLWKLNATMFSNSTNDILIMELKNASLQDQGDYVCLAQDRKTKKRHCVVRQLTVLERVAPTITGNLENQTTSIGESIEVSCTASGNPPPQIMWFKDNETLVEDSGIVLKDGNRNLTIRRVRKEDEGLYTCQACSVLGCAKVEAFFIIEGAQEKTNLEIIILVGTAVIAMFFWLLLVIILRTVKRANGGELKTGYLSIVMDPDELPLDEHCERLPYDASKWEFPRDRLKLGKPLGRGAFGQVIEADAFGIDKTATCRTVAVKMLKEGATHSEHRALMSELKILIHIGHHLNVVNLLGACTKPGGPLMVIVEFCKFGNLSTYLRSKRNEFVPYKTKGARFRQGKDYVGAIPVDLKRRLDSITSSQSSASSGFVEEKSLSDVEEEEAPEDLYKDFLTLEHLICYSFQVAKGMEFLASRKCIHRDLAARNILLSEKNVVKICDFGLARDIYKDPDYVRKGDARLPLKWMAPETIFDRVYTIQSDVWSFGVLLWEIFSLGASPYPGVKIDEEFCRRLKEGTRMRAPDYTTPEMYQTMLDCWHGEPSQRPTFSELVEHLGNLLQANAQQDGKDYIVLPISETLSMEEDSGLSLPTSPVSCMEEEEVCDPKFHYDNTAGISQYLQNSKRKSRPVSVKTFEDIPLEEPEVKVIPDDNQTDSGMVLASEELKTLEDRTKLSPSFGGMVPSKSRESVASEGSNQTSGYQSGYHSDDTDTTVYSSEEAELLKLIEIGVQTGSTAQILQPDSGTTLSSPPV

As a reminder, the IC50 is the concentration that gives 50% inhibition. Low readings indicate greater potency in that assay, high ones weaker potency in that assay. `COc1ccc(-c2oc3ncnc(N)c3c2-c2ccc(NC(=O)Nc3cc(C(F)(F)F)ccc3F)cc2)cc1` [3-{4-[4-amino-6-(4-methoxyphenyl)furo[2,3-d]pyrimidin-5-yl]phenyl}-1-[2-fluoro-5-(trifluoromethyl)phenyl]urea] displayed an IC50 of 15.5 nM.
In the case of `Nc1ncnc2occ(-c3ccc(NC(=O)Nc4cc(C(F)(F)F)cc(C(F)(F)F)c4)cc3)c12` [3-(4-{4-aminofuro[2,3-d]pyrimidin-5-yl}phenyl)-1-[3,5-bis(trifluoromethyl)phenyl]urea] it was 138 nM.
